According to patent US4614731A, “Peptide having immunopotentiating activity similar to thymosin alpha1” (Hoffmann-La Roche Inc., priority 1985, dated 1986):
Ends that are not written are not given here.

What was measured:
[1] = test system: Candida albicans; test: Growth of Candida albicans in C3 H/HeJ mice treated daily i.p. with thymic derivatives; type: in vivo; settings: for Protection in comparison with control mice: daily i.p. graded doses beginning two days before i.v. challenge with 4×10^4 cells of C. albicans; for C. albicans cell count: average number of organisms in left kidneys of nine mice, days 7, 14 and 21 after infection; for Most active (optimum) daily dose: i.p., resistance to infection with C. albicans; for Potency relative to fraction 5 in ability to induce resistance to infection with C. albicans: ratio of optimum doses
Source text: The biological activity of thymosin alpha1 can be determined by utilizing in vivo assays known in the art. Thus, for example, inbred strains of mice are known to vary in their susceptability to infection with C. albicans. Thus, mice of such strains as C3 H/HeJ or CBA/CaJ are highly susceptible to infection, whereas mice of such strains as C57 Bl/10SNJ or C57 Bl/KsJ were highly resistant to challenge. Since resistance to infection with C. albicans is associated with cell-mediated processes, and therefore with T-lymphocytes, thymic hormones should have an effect on the host response.
Thymosin fraction5, alpha1, or alpha11 was injected daily i.p. in graded doses into three different groups of mice, beginning two days before intravenous challenge with 4×10^4 cells of C. albicans.
Mice were treated daily with the indicated doses of thymosin fraction 5,
thymosin α1 or thymosin α11 and challenged with 4
× 10^4 cells of C. albicans two days after the start of
*Three mice from each set were sacrificed on days 7, 14 and 21 after
infection and the values represent the average number of organisms in the
left kidneys of the nine mice in each set.

[2] = test system: T cell differentiation and function; test: in vitro and in vivo assay systems designed to measure T cell differentiation and function
[3] = test system: T cell differentiation and function; settings: several in vitro and in vivo assay systems; cited from earlier work

Substance | Protection in comparison with control mice [1] | C. albicans cell count ([1]; dose 80 ng/mouse daily i.p.) | C. albicans cell count ([1]; dose 160 ng/mouse daily i.p.) | C. albicans cell count ([1]; dose 320 ng/mouse daily i.p.) | C. albicans cell count ([1]; dose 640 ng/mouse daily i.p.) | Most active (optimum) daily dose [1] | Potency relative to fraction 5 in ability to induce resistance to infection with C. albicans [1] | Biological activity relative to thymosin alpha1 [2] | Activity relative to fraction 5 [3]
Ac-SDAAVDTSSEITTKDLKEKKEVVEEAENGREAPAN [Thymosin α11] | provided protection | 4200 | 510 | 320 | 1260 | 160-320 ng per mouse | about 30 times | same quantitative and qualitative biological activity | –
Thymosin α1: first active peptide isolated and characterized from thymosin fraction 5 (Ac-SDAAVDTSSEITTKDLKEKKEVVEEAEN; ends and bridges not checked; UniProt P06454 2-29, looked up) | provided protection | 5870 | 190 | 780 | 1410 | 160-320 ng per mouse | about 30 times | – | one or more orders of magnitude more active than fraction 5
